For series [1], the system named is isolation-induced fighting in mice. As to the kind of experiment: Isolated fighting mouse (IFM) test / isolated mouse aggression. The series is classed as in vivo. The settings on record: for ED50 / responders at 30 mg/kg: Mus musculus, ip; for responders at 30 mg/kg: 30 mg/kg intraperitoneally, at least 40% protected = active. Here is the method: *IFM - Isolated fighting mouse test at a dose of 30 mg/kg
intraperitoneally; those compounds which protected at least 40% of the
(§1) Two models of aggression are used in the primary screening for neuroleptics, (1) isolation-induced fighting in mice (IFM), and (2) aggression induced in rats by destruction of the septal area (septal rat). Compounds are first submitted, however, to the neuropharmacological profile, a standard procedure (see, e.g., Samuel Irwin, Science, 136, 123 [1962]) employed in screening a compound to determine its usefulness as a central nervous system active compound. Those agents which cause depression over a wide dose range are then submitted to the first anti-aggression screen, the isolation-induced fighting mouse assay.
(§2) The compound of Example 6 was compared with chlorpromazine and chlordiazepoxide for its anti-aggressive activity. Three models of experimentally-induced aggression in rodents were studied (R. D. Sofia, Life Science, 8: 705, 1969).

Series [2] is described as follows: Neurotoxicity (rotating rod / rotorod), mice. The settings on record: mouse, in vivo, ip; I.P., mice; 95% confidence limits; read-out: NTD50. How it is done:
(§3) In the neurotoxicity test, the value (NTD50) is defined as the dose necessary to cause 50% of mice or rats trained to walk a rotating wooden rod (5 rpm) to fall at the time of peak effect, and is a measure of drug effects on motor function or central nervous system toxicity. The results set forth in Table III were obtained when the compound of Example 6 was tested against chlorpromazine and chlordiazepoxide.

A short description of series [3]: Neurotoxicity (rotating rod / rotorod), rats. To be noted: rat, in vivo, ip; I.P., rats; 95% confidence limits; read-out: NTD50. Here is the method:
as §3
(In the rotarod test animals must keep their balance on a rotating rod.)

For series [4], the system named is electroshock-induced fighting in mice. As to the kind of experiment: Electroshock-induced fighting in mice. The series is classed as in vivo, mouse.
Description: as §2

Series [5] deals with aggression induced in rats by destruction of the septal area. Put plainly: Septal rat aggression. The format is in vivo.
Description: as §1, §2

The subject of series [6] is maximal electroshock seizures in mice. As to the kind of experiment: Maximal electroshock seizures. The series is classed as in vivo, mouse. To be noted: Mus musculus, ip, 0.5 h, read-out: MES50. How it is done:
Groups of ten mice each were injected i.p. with a vehicle and the compound of Example 6 and placed in individual Plexiglas squares. Thirty minutes after i.p. injection, each mouse was administered an electric shock transcorneally at 50mA intensity, 0.2 seconds duration (Swinyard, et al, J. Pharmacol. Exptl. Ther., 106: 319, 1952). The criterion for activity is protection against tonic extension of the hind limbs. The dose necessary to protect 50% of the mice (MES50) was determined.

The test system of series [7] is pentylenetetrazol seizures in mice. Put plainly: Pentylenetetrazol seizures. To be noted: Mus musculus, ip, 1 h. The format is in vivo, mouse. Here is the method: In this test (modification of the method introduced by Everett and Richard, J. Pharmacol. Exptl. Ther., 81: 402, 1944), groups of ten mice each are pretreated i.p. with vehicle and various doses of the compound of Example 6 and placed in Plexiglas squares. Thirty minutes later, all mice are injected subcutaneously (s.c.) with pentylenetetrazol at 125 mg/kg and observed immediately thereafter for convulsions and death for a period of 1 hour.

Series [8] deals with d-amphetamine aggregation-induced lethality. Put plainly: d-Amphetamine aggregation. The settings on record: inactive at: Example 6 200 mg/kg, chlordiazepoxide 50 mg/kg. The format is in vivo. Here is the method:
Protection from d-amphetamine aggregation-induced lethality is usually afforded by alpha-adrenergic-blocking agents such as chlorpromazine, phenoxybenzamine, etc. Percent protection was determined and an ED50 value was calculated.

The test system of series [9] is dihydroxyphenylalanine-induced fighting behavior in mice. As to the kind of experiment: Dihydroxyphenylalanine (DOPA) fighting test. The format is in vivo, mouse. The settings on record: 200 mg/kg d1-DOPA; pargyline 80 mg/kg, Example 6 100 mg/kg, chlorpromazine 5 mg/kg, chlordiazepoxide 15 mg/kg. Here is the method: It is well known that when monoamine oxidase inhibitors are administered prior to the administration of d1-DOPA, which is a noradrenaline precursor, convulsions or excitation occur. In this study, the MAO inhibitor pargyline (80 mg/kg) was given 1, 2 and 4 hours prior to administering 200 mg/kg of d1-DOPA. […] Thus, in this procedure, none of the agents tested appears to be a MAO inhibitor.

The next series is described as follows: 5 day lethality, mice. To be noted: mouse, in vivo, Mice, 5 day, 10 per cage, read-out: LD50 (95% Confidence Limits). The source says: (§4) Table VIII gives the results of 5 day lethality studies following single injections of drug. All values presented represent tests conducted when animals were housed 10 per cage. The compound of Example 6 was compared with chlorpromazine and chlordiazepoxide. In these and all the preceding calculations, the method of Litchfield and Wilcoxon (J. Pharmacol. Exptl. Ther., 96: 99, 1949) was used to estimate effective (ED50) or lethal (LD50) dose.

The nature of a further series: 5 day lethality, rats. To be noted: rat, in vivo, ip; Rats, I.P., 5 day, 10 per cage; read-out: LD50 (95% Confidence Limits).
Description: as §4

The subject of series [10] is hissing response elicited by hypothalamic stimulation in cats. To be noted: Baxter, Life Sciences, 3: 531, 1964, cited from earlier work.
Series [11] has as its system isolation-induced fighting in mice. Put plainly: Isolated fighting mouse (IFM) test / isolated mouse aggression. The format is in vivo. To be noted: po, 30 mg/kg, per os, read-out: IFM % protected.
Setting [12] is: i.p. administration, read-out: ED50 (IFM).

Where two headings read alike, the source gives them in different places.

`CNC1=Nc2ccc(Cl)cc2C(c2ccccc2)=[N+]([O-])C1` [Chlordiazepoxide, chlordiazepoxide]: the ED50 in series [1] (read-out: ED50 (95% Confidence Limits), Isolated Mouse Aggression) came to 20.5 mg/kg; in series [4] (Mus musculus, ip, read-out: ED50 (95% Confidence Limits), Electroshock-Induced Fighting in Mice) it was 4.2 mg/kg; in [5] (Rattus norvegicus, ip, read-out: ED50 (95% Confidence Limits), Septal Rat Aggression), 25.8 mg/kg; in [6] it was 14.3 mg/kg; in series [7] (read-out: MET50, convulsions), 7.1 mg/kg; in series [7] (read-out: MET50, death) it was 2.6 mg/kg. Moreover, the “NTD50/ED50, Isolated Mouse Aggression” value in series [1] (i.p. administration) is 0.7. For the same compound, the TD50 in [2] was determined as 13.8 mg/kg; in series [3], 4.3 mg/kg. Also, in [4] (i.p. administration), the “NTD50/ED50, Electroshock-Induced Fighting in Mice” value stood at 3.3. Further, the “NTD50/ED50, Septal Rat Aggression” value in series [5] (i.p. administration) is 0.6. The “ED50, d-amphetamine aggregation” value in series [8] is given as “Inactive”. Moreover, the “excitation, salivation, jumping, and fighting with d1-DOPA” value in series [9] is “these symptoms were not observed”. Also, the LD50 at 120 h in “5 day lethality, mice” (ip, I.P.) came out at 400 mg/kg; in “5 day lethality, mice” (po, P.O.), 810 mg/kg; in “5 day lethality, rats”, 265 mg/kg. Moreover, the “effect on hypothalamic threshold / rage response” value in [10] was “increase the threshold of the hypothalamus to electrical stimulation”; in series [10] (listed as chlordiazepoxide) it was “specific in inhibiting this response”. With `NC(=O)c1ccccc1N=NNc1ccccc1C(N)=O` [Example 1, 2,2'-diazoaminobenzamide], the responders at 30 mg/kg in series [1] came out at 100%.

Compound `NC(=O)c1ccccc1N=NNc1nccs1` [Example 2, 2-[3-(2-thiazolyl)-2(or 1)-triazeno]-benzamide] returned a responders at 30 mg/kg in series [1] of 80%. The ED50 in series [1] (setting [12]) was found to be 9.4 mg/kg. Compound `CCn1c2ccccc2c2cc(NN=Nc3ccccc3C(N)=O)ccc21` [Example 4, 2-[3-(9-ethyl-3-carbazolyl)-2(or 1)-triazeno]-benzamide] came in with a responders at 30 mg/kg in series [1] of 100%. On to `Cc1nc(NN=Nc2ccccc2C(N)=O)sc1C(=O)N1CCOCC1` [Example 5, 2-[3-(4-methyl-5-morpholinocarbonyl-2-thiazolyl)-2(or 1)-triazeno]-benzamide], for which the responders at 30 mg/kg in [1] was determined as 100%. Also, in [1] (setting [12]), the ED50 came to 6.7 mg/kg. `Cc1ccc(NN=Nc2ccccc2C(N)=O)cc1` [Example 8, 2-[3-p-tolyl-1(or 2)-triazeno]-benzamide] registered a responders at 30 mg/kg in series [1] of 100%. For the compound `Cc1cc(C)c(NC(=O)c2sc(NN=Nc3ccccc3C(N)=O)nc2C)c(C)c1` [Example 9], the responders at 30 mg/kg in [1] worked out at 60%. On to `COC(=O)c1ccccc1NN=Nc1ccccc1C(N)=O` [Example 10], for which the responders at 30 mg/kg in series [1] stood at 80%. Further, the ED50 in [1] (setting [12]) stood at 6 mg/kg. The compound `NC(=O)c1ccccc1N=NNc1ccc(Cl)cc1` [Example 11] gave a responders at 30 mg/kg in series [1] of 40%.

`NC(=O)c1ccccc1N=NNc1ccc([N+](=O)[O-])cc1` [Example 12] gave a responders at 30 mg/kg in series [1] of 100%.

On to `Cc1ccccc1NN=Nc1ccccc1C(N)=O` [Example 13], for which the responders at 30 mg/kg in series [1] is 100%.

`Cc1cccc(NN=Nc2ccccc2C(N)=O)c1` [Example 14] registered a responders at 30 mg/kg in series [1] of 80%. `NC(=O)c1ccccc1N=NNc1cccc([N+](=O)[O-])c1` [Example 15] yielded a responders at 30 mg/kg in series [1] of 100%. On the same count and under the same terms, the value for `Cc1ccc(NN=Nc2ccccc2C(N)=O)cc1C` [Example 16] was 60%.

In turn, `Cc1nc(NN=Nc2ccccc2C(N)=O)sc1C(=O)Nc1ccccc1Cl` [Example 17] returned a responders at 30 mg/kg in [1] of 60%. In the case of `Cc1nc(NN=Nc2ccccc2C(N)=O)sc1C(=O)Nc1ccccc1` [Example 18], the responders at 30 mg/kg in [1] came to 60%. `NC(=O)c1ccccc1N=NNc1cccnc1` [Example 19]: the responders at 30 mg/kg in series [1] stood at 80%.

As to `NC(=O)c1ccccc1N=NNc1ccc2ncccc2c1` [Example 20], the responders at 30 mg/kg in series [1] stood at 40%. In the case of `NC(=O)c1ccccc1N=NNc1cccnc1Cl` [Example 21], in [1], the responders at 30 mg/kg was found to be 40%. For `COc1ccc(NN=Nc2ccccc2C(N)=O)cn1` [Example 22], the responders at 30 mg/kg in [1] came to 100%. Consider `NC(=O)c1ccccc1N=NNc1cccc2c1C(=O)c1ccccc1C2=O` [Example 23], for which the responders at 30 mg/kg in series [1] is 40%.

In series [1], `COc1ccc(NN=Nc2ccccc2C(N)=O)cc1` [Example 24] registered a responders at 30 mg/kg of 100%. For `COc1ccccc1NN=Nc1ccccc1C(N)=O` [Example 25], the responders at 30 mg/kg in series [1] was 60%. On the same count and under the same terms, to `CNC(=O)c1ccccc1N=NNc1ccc(C)cc1` [Example 26] belongs 100%; to `CNC(=O)c1ccccc1N=NNc1ccc(C)c(Cl)c1` [Example 27], 80%. In turn, `CCCCNC(=O)c1ccccc1N=NNc1ccc(C)c(Cl)c1` [Example 28] returned a responders at 30 mg/kg in series [1] of 60%. In turn, `CNC(=O)c1ccccc1N=NNc1nc(C)c(C(=O)NCc2ccccc2)s1` [Example 29] gave a responders at 30 mg/kg in series [1] of 100%.

As for `CCNC(=O)c1ccccc1N=NNc1nc(C)c(C(=O)NCc2ccccc2)s1` [Example 30], in series [11], the responders at 30 mg/kg was determined as 60%. Compound `Cc1nc(NN=Nc2ccccc2C(=O)N(C)C)sc1C(=O)NCc1ccccc1` [Example 31] had a responders at 30 mg/kg in series [1] of 60%. Same read-out and setting: the value for `Cc1ccc(NN=Nc2ccccc2C(=O)Nc2ccccc2)cc1` [Example 32] was 60%. Consider `COc1ccc([N+](=O)[O-])cc1NN=Nc1ccccc1C(N)=O` [Example 33], for which, in series [1], the responders at 30 mg/kg amounted to 100%. In [1] (setting [12]), the ED50 came out at 14 mg/kg.

In turn, `COc1cc([N+](=O)[O-])c(C)cc1NN=Nc1ccccc1C(N)=O` [Example 34] had a responders at 30 mg/kg in series [1] of 100%. Further, the ED50 in series [1] (setting [12]) is 14.5 mg/kg.

Take `NC(=O)c1ccccc1N=NNc1ccccc1Cl` [Example 35]: the responders at 30 mg/kg in series [1] was determined as 80%. Moreover, in series [1] (setting [12]), the ED50 came out at 5.2 mg/kg. In series [1], `NC(=O)c1ccccc1N=NNc1cccc(Cl)c1` [Example 36] returned a responders at 30 mg/kg of 40%. Compound `COc1ccc(Cl)cc1NN=Nc1ccccc1C(N)=O` [Example 37] registered a responders at 30 mg/kg in series [1] of 60%. For `CCOc1ccc(NN=Nc2ccccc2C(N)=O)cc1` [Example 38], the responders at 30 mg/kg in series [1] is 40%. Turning to `Cc1c(Cl)cccc1NN=Nc1ccccc1C(N)=O` [Example 39], in series [1], the responders at 30 mg/kg was 40%.

As to `C#CCN(C)Cc1ccccc1` [pargyline], the “excitation, salivation, jumping, and fighting with d1-DOPA” value in series [9] was “excitation, salivation, jumping, and fighting”.

The term LD50 denotes the dose expected to kill half of the subjects tested.

These data come from US3932633A, “Novel o-triazenobenzamides, in treating aggressive behavior” (Uniroyal Inc., priority 1974, dated 1976).
